PMC9172550, “Novel derivatives of eugenol as potent anti-inflammatory agents via PPARγ agonism: rational design, synthesis, analysis, PPARγ protein binding assay and computational studies” (RSC Advances, 2022)

Legend:
PPARγ LBD protein = target: T1, PPARγ LBD protein (Homo sapiens, UniProt P37231); experiment: LanthaScreen TR-FRET competitive ligand displacement (PPARγ protein binding) assay; details: for IC50: TR-FRET PPARγ binding, tracer displacement
T1 construct: 1 nM 6xHis-PPAR LBD protein
T1 sequence (P37231 238-503 limits assumed): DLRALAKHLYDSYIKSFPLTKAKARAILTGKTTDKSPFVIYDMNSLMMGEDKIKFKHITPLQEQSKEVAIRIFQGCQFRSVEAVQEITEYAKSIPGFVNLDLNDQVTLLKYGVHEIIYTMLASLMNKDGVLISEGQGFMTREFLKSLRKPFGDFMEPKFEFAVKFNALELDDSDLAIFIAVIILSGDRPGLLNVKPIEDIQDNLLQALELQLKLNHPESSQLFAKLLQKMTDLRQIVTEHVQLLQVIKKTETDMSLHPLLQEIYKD
Method: Based on time-resolved fluorescence resonance energy transfer (TR-FRET), the nuclear receptor competitive binding assay was utilized to identify PPARγ ligands. […] The tracer is displaced from PPARγ-LBD by a chemical under test, resulting in a decrease in the FRET signal and a low TR-FRET ratio (Fig. 8).
We performed a time-resolved fluorescence resonance energy transfer (TR-FRET) assay using a black flat bottom 384-well plate and a buffer containing 20 mM potassium phosphate (pH 7.4), 0.5 mM EDTA, 50 mM KCl, and 0.01% Tween-20, 5 mM TCEP. For the TR-FRET coregulator interaction assay, each well contained 400 nM FITC-labeled TRAP220 or NCoR1 peptides, 1 nM LanthaScreen Elite Tb-anti-His Antibody, 4 nM 6xHis-PPARγ LBD protein and 400 nM peptide in TR-FRET buffer in 22.5 μL total volume per well. Each well ([…] per well) included 1 nM 6xHis-PPAR LBD protein, 1 nM LanthaScreen Elite Tb-anti-His Antibody, and 5 nM Fluormone Pan-PPAR Green tracer ligand in TR-FRET buffer for the ligand displacement experiment. Ligand stocks were made by serial dilution in DMSO, then added to wells in triplicate to a final DMSO concentration of 1%, then incubated at room temperature for 1 hour, and read using a BioTek Synergy Neo multimode plate reader. The Tb donor was stimulated at 340 nm, its fluorescence emission was measured at 490 nm, and the FITC emission of the acceptor was detected at 520 nm. The signal at 520 nm/490 nm was used to compute the TR-FRET ratio.[37,38]

egg albumin = egg albumin (Gallus gallus, UniProt P01012); experiment: Albumin denaturation assay (in vitro anti-inflammatory activity); set-up: species or system hen; details: means ± SD, n = 3, read-out: percentage inhibition of albumin denaturation
Sequence of egg albumin (P01012 2-386): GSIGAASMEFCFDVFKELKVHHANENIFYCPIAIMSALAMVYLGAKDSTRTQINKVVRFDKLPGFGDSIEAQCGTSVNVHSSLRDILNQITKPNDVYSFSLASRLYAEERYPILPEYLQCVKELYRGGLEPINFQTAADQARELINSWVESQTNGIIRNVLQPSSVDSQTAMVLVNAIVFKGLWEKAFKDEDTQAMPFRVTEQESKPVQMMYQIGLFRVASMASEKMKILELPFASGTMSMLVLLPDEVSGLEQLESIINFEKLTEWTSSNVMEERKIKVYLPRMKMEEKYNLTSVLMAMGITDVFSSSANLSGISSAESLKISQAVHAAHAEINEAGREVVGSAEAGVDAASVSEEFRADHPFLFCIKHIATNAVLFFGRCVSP
Method: In this assay egg albumin is used as protein. Protein denaturation is achieved by keeping the reaction mixture at 70 °C in a water bath for 10 minutes.
The reaction mixture containing 0.2 ml of egg albumin (from fresh hen's eggs), 2.8 ml of phosphate-buffered saline (pH 6.4), and were mixed with 2 ml of the synthesized compounds in varying concentrations. Then the samples were incubated at 37 °C for 20 min and then heated to 70 °C for 20 min. After cooling the samples, the turbidity was measured spectrophotometrically at 660 nm. […] The following formula was used to calculate the percentage inhibition of protein denaturation. [drawing 5]

SMILES | IC50 (PPARγ LBD protein) | Raw Data (RLU) (PPARγ LBD protein; TR-FRET signal at 0.0000512 µM) | Raw Data - Background (RLU) (PPARγ LBD protein; TR-FRET signal at 0.0000512 µM) | Raw Data (RLU) (PPARγ LBD protein; TR-FRET signal at 0.000256 µM) | Raw Data - Background (RLU) (PPARγ LBD protein; TR-FRET signal at 0.000256 µM) | Raw Data (RLU) (PPARγ LBD protein; TR-FRET signal at 0.00128 µM) | Raw Data - Background (RLU) (PPARγ LBD protein; TR-FRET signal at 0.00128 µM) | Raw Data (RLU) (PPARγ LBD protein; TR-FRET signal at 0.0064 µM) | Raw Data - Background (RLU) (PPARγ LBD protein; TR-FRET signal at 0.0064 µM) | Raw Data (RLU) (PPARγ LBD protein; TR-FRET signal at 0.032 µM) | Raw Data - Background (RLU) (PPARγ LBD protein; TR-FRET signal at 0.032 µM) | Raw Data (RLU) (PPARγ LBD protein; TR-FRET signal at 0.16 µM) | Raw Data - Background (RLU) (PPARγ LBD protein; TR-FRET signal at 0.16 µM) | inhibition at 6.25 µM (egg albumin) | inhibition at 12.5 µM (egg albumin) | inhibition at 25 µM (egg albumin) | inhibition at 50 µM (egg albumin) | inhibition at 150 µM (egg albumin) | inhibition at 200 µM (egg albumin) | inhibition at 400 µM (egg albumin) | also measured
C=CCc1ccc(OCC(=O)Nc2ccc(C)cc2)c(OC)c1 [Compound 1A, 2-(4-Allyl-2-methoxyphenoxy)-N-p-tolylacetamide] | 13.5 µM | 2.07 RLU | 1.84 RLU | 2.10 RLU | 1.862 RLU | 2.02 RLU | 1.787 RLU | 1.92 RLU | 1.688 RLU | 2.00 RLU | 1.76 RLU | 1.95 RLU | 1.716 RLU | 2.42 ± 0.165% | 5.7 ± 3.19% | 8.72 ± 3.93% | 13.3 ± 7.51% | 17.2 ± 8.71% | 25.4 ± 2.87% | 32 ± 2.95% | Raw Data (RLU) (PPARγ LBD protein; TR-FRET signal at 0.8 µM): 1.99 RLU; Raw Data - Background (RLU) (PPARγ LBD protein; TR-FRET signal at 0.8 µM): 1.754 RLU; Raw Data (RLU) (PPARγ LBD protein; TR-FRET signal at 4 µM): 1.57 RLU; Raw Data - Background (RLU) (PPARγ LBD protein; TR-FRET signal at 4 µM): 1.332 RLU; Raw Data (RLU) (PPARγ LBD protein; TR-FRET signal at 20 µM): 1.07 RLU; Raw Data - Background (RLU) (PPARγ LBD protein; TR-FRET signal at 20 µM): 0.8399 RLU; Raw Data (RLU) (PPARγ LBD protein; TR-FRET signal at 100 µM): 0.54 RLU; Raw Data - Background (RLU) (PPARγ LBD protein; TR-FRET signal at 100 µM): 0.3006 RLU
C=CCc1ccc(OCC(=O)Nc2ccc(OC)cc2)c(OC)c1 [Compound 1B, 2-(4-Allyl-2-methoxyphenoxy)-N-(4-methoxyphenyl) acetamide] | 41.5 µM | 2.024 RLU | 1.789 RLU | 1.990 RLU | 1.755 RLU | 1.965 RLU | 1.73 RLU | 1.913 RLU | 1.678 RLU | 1.913 RLU | 1.678 RLU | 1.960 RLU | 1.724 RLU | 1.71 ± 0.344% | 4.57 ± 0.54% | 6.82 ± 1.37% | 8.59 ± 0.205% | 9.45 ± 0.681% | 16.4 ± 5.09% | 30.7 ± 4.44% | Raw Data (RLU) (PPARγ LBD protein; TR-FRET signal at 0.8 µM): 2.002 RLU; Raw Data - Background (RLU) (PPARγ LBD protein; TR-FRET signal at 0.8 µM): 1.767 RLU; Raw Data (RLU) (PPARγ LBD protein; TR-FRET signal at 4 µM): 1.855 RLU; Raw Data - Background (RLU) (PPARγ LBD protein; TR-FRET signal at 4 µM): 1.619 RLU; Raw Data (RLU) (PPARγ LBD protein; TR-FRET signal at 20 µM): 1.280 RLU; Raw Data - Background (RLU) (PPARγ LBD protein; TR-FRET signal at 20 µM): 1.045 RLU; Raw Data (RLU) (PPARγ LBD protein; TR-FRET signal at 100 µM): 0.534 RLU; Raw Data - Background (RLU) (PPARγ LBD protein; TR-FRET signal at 100 µM): 0.2989 RLU
C=CCc1ccc(OCC(=O)Nc2ccc(Cl)cc2)c(OC)c1 [Compound 1C, 2-(4-Allyl-2-methoxyphenoxy)-N-(4-chlorophenyl) acetamide] | 10.7 µM | 2.069 RLU | 1.834 RLU | 1.896 RLU | 1.660 RLU | 1.907 RLU | 1.672 RLU | 1.934 RLU | 1.699 RLU | 1.989 RLU | 1.754 RLU | 1.921 RLU | 1.686 RLU | 5.23 ± 4.12% | 9.14 ± 0.615% | 15.7 ± 1.59% | 22.6 ± 1.98% | 38.5 ± 1.1% | 48.1 ± 1.14% | 56.9 ± 1.8% | Raw Data (RLU) (PPARγ LBD protein; TR-FRET signal at 0.8 µM): 1.922 RLU; Raw Data - Background (RLU) (PPARγ LBD protein; TR-FRET signal at 0.8 µM): 1.687 RLU; Raw Data (RLU) (PPARγ LBD protein; TR-FRET signal at 4 µM): 1.761 RLU; Raw Data - Background (RLU) (PPARγ LBD protein; TR-FRET signal at 4 µM): 1.526 RLU; Raw Data (RLU) (PPARγ LBD protein; TR-FRET signal at 20 µM): 1.058 RLU; Raw Data - Background (RLU) (PPARγ LBD protein; TR-FRET signal at 20 µM): 0.823 RLU; Raw Data (RLU) (PPARγ LBD protein; TR-FRET signal at 100 µM): 0.951 RLU; Raw Data - Background (RLU) (PPARγ LBD protein; TR-FRET signal at 100 µM): 0.716 RLU
C=CCc1ccc(OCC(=O)Nc2cccc(C)c2)c(OC)c1 [Compound 1D, 2-(4-Allyl-2-methoxyphenoxy)-N-m-tolylacetamide] | 15 µM | 1.92 RLU | 1.69 RLU | 1.95 RLU | 1.72 RLU | 1.85 RLU | 1.61 RLU | 2.07 RLU | 1.83 RLU | 1.93 RLU | 1.70 RLU | 1.87 RLU | 1.64 RLU | 2.66 ± 1.12% | 7.88 ± 3.8% | 11.1 ± 3.65% | 15.9 ± 7.79% | 22.4 ± 5.43% | 29.6 ± 3.94% | 36.7 ± 4.77% | Raw Data (RLU) (PPARγ LBD protein; TR-FRET signal at 0.8 µM): 1.91 RLU; Raw Data - Background (RLU) (PPARγ LBD protein; TR-FRET signal at 0.8 µM): 1.68 RLU; Raw Data (RLU) (PPARγ LBD protein; TR-FRET signal at 4 µM): 1.91 RLU; Raw Data - Background (RLU) (PPARγ LBD protein; TR-FRET signal at 4 µM): 1.67 RLU; Raw Data (RLU) (PPARγ LBD protein; TR-FRET signal at 20 µM): 1.91 RLU; Raw Data - Background (RLU) (PPARγ LBD protein; TR-FRET signal at 20 µM): 1.67 RLU; Raw Data (RLU) (PPARγ LBD protein; TR-FRET signal at 100 µM): 1.40 RLU; Raw Data - Background (RLU) (PPARγ LBD protein; TR-FRET signal at 100 µM): 1.17 RLU
O=C(O)Cc1ccccc1Nc1c(Cl)cccc1Cl [Standard diclofenac, Diclofenac sodium, reference compound] |  |  |  |  |  |  |  |  |  |  |  |  |  | 10 ± 0.463% | 15.7 ± 0.429% | 27 ± 0.336% | 38.5 ± 0.468% | 48.3 ± 3.14% | 60.9 ± 0.223% | 66.29 ± 0.375% | 
